Experimental data published in the NIST ThermoML archive (doi:10.1021/je300997v).

Experiment: xn = mol fraction of the nth substance listed
Conditions: 101 kPa, Liquid; for viscosity: Capillary tube (Ostwald / Ubbelohde) method; for mass density: Pycnometric method; for electrical conductivity: conductivity meter

C[N+](C)(C)CCO.[Cl-] [choline chloride] + Oc1ccccc1
Conditions	electrical conductivity [S/m]	mass density [kg/m3]	viscosity [mPa·s]
293.2 K, x2 = 0.6667	0.14	1099.5	120.77
293.2 K, x2 = 0.75	0.238	1094.8	57.84
293.2 K, x2 = 0.8	0.275	1091.8	40.23
293.2 K, x2 = 0.8333	0.281	1089.8	31.96
293.2 K, x2 = 0.8571	0.273	1088.5	27.03
298.2 K, x2 = 0.6667	0.205	1096.7	90.33
298.2 K, x2 = 0.75	0.314	1092.1	44.64
298.2 K, x2 = 0.8	0.345	1089.3	31.55
298.2 K, x2 = 0.8333	0.347	1087	25.25
298.2 K, x2 = 0.8571	0.338	1085.2	21.43
303.2 K, x2 = 0.6667	0.265	1093	68.41
303.2 K, x2 = 0.75	0.388	1089	35.17
303.2 K, x2 = 0.8	0.421	1086	25.2
303.2 K, x2 = 0.8333	0.425	1083.8	19.75
303.2 K, x2 = 0.8571	0.409	1081.8	16.82
308.2 K, x2 = 0.6667	0.337	1090.1	53.43
308.2 K, x2 = 0.75	0.477	1085.8	28.22
308.2 K, x2 = 0.8	0.507	1081.9	20.25
308.2 K, x2 = 0.8333	0.508	1080.3	16.16
308.2 K, x2 = 0.8571	0.487	1078.2	13.76
313.2 K, x2 = 0.6667	0.416	1087.3	42.42
313.2 K, x2 = 0.75	0.576	1082.9	23.08
313.2 K, x2 = 0.8	0.602	1079.5	16.71
313.2 K, x2 = 0.8333	0.599	1076.1	13.44
313.2 K, x2 = 0.8571	0.574	1074.5	11.45
318.2 K, x2 = 0.6667	0.509	1084.3	34.34
318.2 K, x2 = 0.75	0.677	1079.5	19.14
318.2 K, x2 = 0.8	0.706	1076.3	14
318.2 K, x2 = 0.8333	0.696	1073.6	11.26
318.2 K, x2 = 0.8571	0.666	1071.7	9.46
